Among the data in patent US8003649B2 (AstraZeneca AB, priority 2007, dated 2011) are DC50 values, retold here.

The structures appear in SMILES notation. Where only a bound is given, the exact number is not on record here.

In the assay the target is T1, Androgen Receptor (AR) (Homo sapiens, UniProt P10275, T878A).
T1 construct: cell based immuno-fluorescence assay using the LNCaP prostate epithelial cell line; endogenous in cells; host or cells: LNCaP clone FGC (ATCC CRL-1740)
T1 sequence (P10275 1-920 T878A): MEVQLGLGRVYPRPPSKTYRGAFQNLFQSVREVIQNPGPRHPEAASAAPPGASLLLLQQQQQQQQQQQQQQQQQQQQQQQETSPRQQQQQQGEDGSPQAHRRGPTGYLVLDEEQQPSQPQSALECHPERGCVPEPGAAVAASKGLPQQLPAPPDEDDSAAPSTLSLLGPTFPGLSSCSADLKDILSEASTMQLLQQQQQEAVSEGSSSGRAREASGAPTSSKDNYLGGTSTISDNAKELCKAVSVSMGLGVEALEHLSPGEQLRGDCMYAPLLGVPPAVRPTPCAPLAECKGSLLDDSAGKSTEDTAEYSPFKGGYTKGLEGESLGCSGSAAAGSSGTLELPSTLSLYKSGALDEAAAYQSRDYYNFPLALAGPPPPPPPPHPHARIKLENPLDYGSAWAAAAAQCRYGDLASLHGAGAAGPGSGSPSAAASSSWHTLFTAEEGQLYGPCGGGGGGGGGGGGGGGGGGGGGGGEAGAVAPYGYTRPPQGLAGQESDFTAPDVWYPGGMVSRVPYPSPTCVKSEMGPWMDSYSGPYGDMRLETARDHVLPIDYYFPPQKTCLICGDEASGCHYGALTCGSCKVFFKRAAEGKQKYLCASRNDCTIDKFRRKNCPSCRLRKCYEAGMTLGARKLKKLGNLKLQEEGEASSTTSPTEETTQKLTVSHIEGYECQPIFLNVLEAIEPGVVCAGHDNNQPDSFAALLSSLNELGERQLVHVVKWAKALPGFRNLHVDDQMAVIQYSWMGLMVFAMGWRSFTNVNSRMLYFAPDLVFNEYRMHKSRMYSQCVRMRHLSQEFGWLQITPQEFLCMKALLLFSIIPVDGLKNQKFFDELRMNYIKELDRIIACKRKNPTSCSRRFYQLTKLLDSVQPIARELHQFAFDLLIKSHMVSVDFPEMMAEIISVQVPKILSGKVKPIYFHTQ
As to the kind of experiment: LNCaP Androgen Receptor Down-regulation Cell Assay (immunofluorescence end point). In kind it is cell-based. To be noted: LNCaP prostate carcinoma cells, compound incubation 20-22 hours, 50% reduction of the AR signal; read-out: Androgen Receptor Down-regulation Assay (a) IC50/μM. The procedure, abridged:
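AR loss reported as IC50 from curve fits of fluorescence dose-response data, with AR immunostained and read by laser-scanning cytometry. Compound exposure was 20-22 h at 37° C in LNCaP cells grown in 5% charcoal-stripped FBS and plated overnight beforehand.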
Regarding `FC(F)(Cl)c1nnc2ccc(N3CC4CN(Cc5ccccc5)CC4C3)nn12` (stereo not shown) [Example 354, 6-(5-benzylhexahydropyrrolo[3,4-c]pyrrol-2(1H)-yl)-3-[chloro(difluoro)methyl][1,2,4]triazolo[4,3-b]pyridazine], the DC50 was determined as 2.7 µM.

As for `FC(F)(Cl)c1nnc2ccc(N3CCCC(c4ccccc4)CC3)nn12` (stereo not shown) [Example 355, 3-[chloro(difluoro)methyl]-6-(4-phenylazepan-1-yl)[1,2,4]triazolo[4,3-b]pyridazine], the DC50 amounted to 0.72 µM.

Take `FC(F)(Cl)c1nnc2ccc(N3CCN(Cc4cccs4)CC3)nn12` [Example 356, 3-[chloro(difluoro)methyl]-6-[4-(thiophen-2-ylmethyl)piperazin-1-yl][1,2,4]triazolo[4,3-b]pyridazine]: the DC50 was determined as 2.2 µM.

For the compound `FC(F)(Cl)c1nnc2ccc(N3CCN(Cc4ccsc4)CC3)nn12` [Example 357, 3-[chloro(difluoro)methyl]-6-[4-(thiophen-3-ylmethyl)piperazin-1-yl][1,2,4]triazolo[4,3-b]pyridazine], the DC50 was determined as 2.1 µM.

Turning to `C[C@H]1CN(Cc2ccncc2)CCN1c1ccc2nnc(C(F)(F)F)n2n1` [Example 358, 6-[(2S)-2-methyl-4-(pyridin-4-ylmethyl)piperazin-1-yl]-3-(trifluoromethyl)[1,2,4]triazolo[4,3-b]pyridazine], the DC50 is 6.7 µM.

Turning to `C[C@H]1CN(Cc2ccccn2)CCN1c1ccc2nnc(C(F)(F)F)n2n1` [Example 359], the DC50 worked out at 2.6 µM.

With `C[C@H]1CN(Cc2cccc(Br)n2)CCN1c1ccc2nnc(C(F)(F)F)n2n1` [Example 360], the DC50 came out at 1 µM.

On to `C[C@H]1CN(Cc2ccc(C(F)(F)F)nc2)CCN1c1ccc2nnc(C(F)(F)F)n2n1` [Example 361], for which the DC50 turned out to be 4.7 µM.

Consider `C[C@H]1CN(Cc2cncc(F)c2)CCN1c1ccc2nnc(C(F)(F)F)n2n1` [Example 366], for which the DC50 is more than 33 µM.

For the compound `FC(F)(F)c1nnc2ccc(N3CCN(Cc4cccc(Br)n4)CC3)nn12` [Example 367, 6-[4-[(6-bromopyridin-2-yl)methyl]piperazin-1-yl]-3-(trifluoromethyl)[1,2,4]triazolo[4,3-b]pyridazine], the DC50 stood at 4.1 µM.

For the compound `FC(F)(F)c1nnc2ccc(N3CCN(Cc4cccnc4Cl)CC3)nn12` [Example 369], the DC50 was 8.7 µM.

For the compound `FC(F)(F)c1nnc2ccc(N3CCN(Cc4ccc(Br)nc4)CC3)nn12` [Example 374, 6-[4-[(6-bromopyridin-3-yl)methyl]piperazin-1-yl]-3-(trifluoromethyl)[1,2,4]triazolo[4,3-b]pyridazine], the DC50 was found to be 0.93 µM.

`FC(F)(F)c1nnc2ccc(N3CCN(Cc4cccnc4Br)CC3)nn12` [Example 376]: the DC50 turned out to be 3 µM.

In the case of `FC(F)(F)c1nnc2ccc(N3CCN(Cc4cnccc4Br)CC3)nn12` [Example 377], the DC50 is 5.9 µM.

In the case of `N#Cc1cc(F)c(CN2CCN(c3ccc4nnc(C(F)(F)F)n4n3)CC2)c(F)c1` [Example 380], the DC50 amounted to 4.2 µM.

In the case of `Fc1cccc(CN2CCN(c3ccc4nnc(C(F)(F)F)n4n3)CC2)c1F` [Example 381], the DC50 came to 2.1 µM.

Consider `Fc1ccc(CN2CCN(c3ccc4nnc(C(F)(F)F)n4n3)CC2)c(F)c1` [Example 382], for which the DC50 is 1.8 µM.

In the case of `Fc1cccc(F)c1CN1CCN(c2ccc3nnc(C(F)(F)F)n3n2)CC1` [Example 384], the DC50 was found to be 2.9 µM.

On to `COc1ccc(CN2CCN(c3ccc4nnc(C(F)(F)F)n4n3)CC2)c(F)c1` [Example 385], for which the DC50 turned out to be 2.1 µM.

Turning to `Fc1ccc(F)c(CN2CCN(c3ccc4nnc(C(F)(F)F)n4n3)CC2)c1` [Example 386], the DC50 was determined as 2.4 µM.

Turning to `COc1ccc(CN2CCN(c3ccc4nnc(C(F)(F)F)n4n3)CC2)cc1F` [Example 388], the DC50 was 1.6 µM.

Consider `N#Cc1ccc(CN2CCN(c3ccc4nnc(C(F)(F)F)n4n3)CC2)c(F)c1` [Example 389], for which the DC50 came out at 1.5 µM.

As for `COc1ccc(F)c(CN2CCN(c3ccc4nnc(C(F)(F)F)n4n3)CC2)c1` [Example 390], the DC50 turned out to be 1.7 µM.

As for `Fc1cc(F)cc(CN2CCN(c3ccc4nnc(C(F)(F)F)n4n3)CC2)c1` [Example 391], the DC50 amounted to 2.7 µM.

For the compound `O=S(=O)(c1ccc2ccccc2c1)N1CCN(c2ccc3nnc(C(F)(F)F)n3n2)CC1` [Example 394, 6-[4-(naphthalen-2-ylsulfonyl)piperazin-1-yl]-3-(trifluoromethyl)[1,2,4]triazolo[4,3-b]pyridazine], the DC50 was determined as 5.6 µM.

Consider `COc1cccc(S(=O)(=O)N2CCN(c3ccc4nnc(C(F)(F)F)n4n3)CC2)c1` [Example 396], for which the DC50 amounted to 1.8 µM.

For `COc1ccccc1S(=O)(=O)N1CCN(c2ccc3nnc(C(F)(F)F)n3n2)CC1` [Example 397], the DC50 turned out to be 3.9 µM.

`COc1ccc(S(=O)(=O)N2CCN(c3ccc4nnc(C(F)(F)F)n4n3)CC2)cc1` [Example 398]: the DC50 is 1.9 µM.

`COc1ccc(OC)c(S(=O)(=O)N2CCN(c3ccc4nnc(C(F)(F)F)n4n3)CC2)c1` [Example 399]: the DC50 turned out to be 3.7 µM.

For `N#Cc1ccccc1S(=O)(=O)N1CCN(c2ccc3nnc(C(F)(F)F)n3n2)CC1` [Example 403], the DC50 was determined as 4.8 µM.

With `COc1ccc(S(=O)(=O)N2CCN(c3ccc4nnc(C(F)(F)F)n4n3)CC2)c(OC)c1` [Example 404], the DC50 came out at 2.7 µM.

In the case of `O=S(=O)(c1ccc(F)cc1)N1CCN(c2ccc3nnc(C(F)(F)F)n3n2)CC1` [Example 405], the DC50 came to 3 µM.

On to `CN(Cc1cccnc1)C1CCN(c2ccc3nnc(C(F)(F)F)n3n2)CC1` [Example 406, N-methyl-N-(pyridin-3-ylmethyl)-1-[3-(trifluoromethyl)[1,2,4]triazolo[4,3-b]pyridazin-6-yl]piperidin-4-amine], for which the DC50 worked out at 6.3 µM.

Turning to `CN(Cc1ccc(F)cc1)C1CCN(c2ccc3nnc(C(F)(F)F)n3n2)CC1` [Example 407], the DC50 was determined as 5.7 µM.

On to `CN(Cc1ccc(F)c(F)c1)C1CCN(c2ccc3nnc(C(F)(F)F)n3n2)CC1` [Example 408], for which the DC50 stood at 1.7 µM.

With `CN(Cc1ccc(C#N)cc1)C1CCN(c2ccc3nnc(C(F)(F)F)n3n2)CC1` [Example 409], the DC50 stood at 3.9 µM.

As to `CN(Cc1cc(F)cc(F)c1)C1CCN(c2ccc3nnc(C(F)(F)F)n3n2)CC1` [Example 410], the DC50 is 2.1 µM.

Regarding `CN(Cc1ccc(F)c(C#N)c1)C1CCN(c2ccc3nnc(C(F)(F)F)n3n2)CC1` [Example 411], the DC50 was found to be 2.2 µM.

Take `CN(CCO)C(=O)c1ccc(OC2CCN(c3ccc4nnc(C(F)(F)F)n4n3)CC2)cc1` [Example 412, N-(2-hydroxyethyl)-N-methyl-4-[[1-[3-(trifluoromethyl)-[1,2,4]triazolo[4,3-b]pyridazin-6-yl]piperidin-4-yl]oxy]benzamide]: the DC50 was 9.1 µM.

For the compound `O=C(NCCN1CCCC1)c1ccc(OC2CCN(c3ccc4nnc(C(F)(F)F)n4n3)CC2)cc1` [Example 413], the DC50 amounted to 1.9 µM.

With `CN1CCN(C(=O)c2ccc(OC3CCN(c4ccc5nnc(C(F)(F)F)n5n4)CC3)cc2)CC1` [Example 414], the DC50 is more than 10 µM.

Regarding `COCCNC(=O)c1ccc(OC2CCN(c3ccc4nnc(C(F)(F)F)n4n3)CC2)cc1` [Example 416], the DC50 is 2.7 µM.

On to `CN(C)C(=O)c1ccc(OC2CCN(c3ccc4nnc(C(F)(F)F)n4n3)CC2)cc1` [Example 417], for which the DC50 was found to be 4.6 µM.
